From ChEMBL document CHEMBL3885881, “DrugMatrix”

Species on record: Rattus norvegicus
Experiment: DrugMatrix - Regimen: Daily Repeat
Assay type: toxicity, organism-based, Sprague-Dawley
Design: regimen Daily Repeat, gender Male, age 6-8 weeks
Conditions: in vivo, iv, vehicle 100 % SALINE; for ABSOLUTE BASOPHIL / ABSOLUTE EOSINOPHIL / ABSOLUTE LYMPHOCYTE / ABSOLUTE MONOCYTE / ABSOLUTE SEGMENTED NEUTROPHIL / BASOPHIL / EOSINOPHIL / ERYTHROCYTE COUNT / HEMATOCRIT / HEMOGLOBIN / LEUKOCYTE COUNT / LYMPHOCYTE / MEAN CORPUSCULAR HEMOGLOBIN / MEAN CORPUSCULAR HEMOGLOBIN CONCENTRATION / MEAN CORPUSCULAR VOLUME / MONOCYTE / NEUTROPHIL / NUCLEATED RED BLOOD CELLS / PLATELET COUNT: tissue Blood; for ALANINE AMINOTRANSFERASE / ALBUMIN / ALKALINE PHOSPHATASE / ASPARTATE AMINOTRANSFERASE / BLOOD UREA NITROGEN / CARBON DIOXIDE / CHLORIDE / CHOLESTEROL / CREATINE PHOSPHOKINASE / CREATININE / GLUCOSE / LACTATE DEHYDROGENASE / LIPASE / PHOSPHORUS / POTASSIUM / SODIUM / TOTAL BILIRUBIN / TOTAL PROTEIN / URIC ACID: tissue Plasma
[1] = 29 mg/kg, 120 h, dose level Low, time 5 day
[2] = 48 mg/kg, 72 h, dose level High, time 3 day
[3] = 48 mg/kg, 120 h, dose level High, time 5 day

In the case of C[n+]1ccccc1/C=N/O.[Cl-] [PRALIDOXIME CHLORIDE], the “ABSOLUTE BASOPHIL” value [1] is reported as 0 CELLS/uL, the “ABSOLUTE EOSINOPHIL” value [1] is reported as 0 CELLS/uL and the “ABSOLUTE LYMPHOCYTE” value [1] is reported as 11211.67 CELLS/uL. The “ABSOLUTE MONOCYTE” value [1] was 254 CELLS/uL, the “ABSOLUTE SEGMENTED NEUTROPHIL” value [1] was 1034.33 CELLS/uL and the BASOPHIL [1] was 0%. For the same molecule, the EOSINOPHIL [1] was 0%, the “ERYTHROCYTE COUNT” value [1] was 5.41 x10E6/uL and the HEMATOCRIT [1] was 34.03%. For the same molecule, the HEMOGLOBIN [1] was 12.57 G/DL, the “LEUKOCYTE COUNT” value [1] was 12.5 x10E3/uL and the LYMPHOCYTE [1] was 89.67%. The “MEAN CORPUSCULAR HEMOGLOBIN” value [1] was 23.3 pg, the “MEAN CORPUSCULAR HEMOGLOBIN CONCENTRATION” value [1] was 36.97 G/DL and the “MEAN CORPUSCULAR VOLUME” value [1] was 63 fL. The MONOCYTE [1] was 2%, the NEUTROPHIL [1] was 8.33% and the “NUCLEATED RED BLOOD CELLS” value [1] was 0 /100WBC. For the same molecule, the “PLATELET COUNT” value [1] was 1164.33 x10E3/uL, the “ALANINE AMINOTRANSFERASE” value [1] was 69.67 u/L and the ALBUMIN [1] was 3.7 G/DL. For the same molecule, the “ALKALINE PHOSPHATASE” value [1] was 366.67 u/L, the “ASPARTATE AMINOTRANSFERASE” value [1] was 95.33 u/L and the “BLOOD UREA NITROGEN” value [1] was 17.67 mg/dL. For the same molecule, the “CARBON DIOXIDE” value [1] was 22.67 mmol/L, the CHLORIDE [1] was 105 MEQ/L and the CHOLESTEROL [1] was 58.67 mg/dL. The “CREATINE PHOSPHOKINASE” value [1] was 283.67 u/L, the CREATININE [1] was 0.2 mg/dL and the GLUCOSE [1] was 168.67 mg/dL. The “LACTATE DEHYDROGENASE” value [1] was 87.33 u/L, the LIPASE [1] was 9 u/L and the PHOSPHORUS [1] was 12.73 mg/dL. For the same molecule, the POTASSIUM [1] was 7.24 MEQ/L, the SODIUM [1] was 145.2 MEQ/L and the “TOTAL BILIRUBIN” value [1] was 0.1 mg/dL. The “TOTAL PROTEIN” value [1] was 5.83 G/DL, the “URIC ACID” value [1] was 1.97 mg/dL and the “ABSOLUTE BASOPHIL” value [2] was 0 CELLS/uL. The “ABSOLUTE EOSINOPHIL” value [2] was 0 CELLS/uL, the “ABSOLUTE LYMPHOCYTE” value [2] was 13021.33 CELLS/uL and the “ABSOLUTE MONOCYTE” value [2] was 38.67 CELLS/uL. For the same molecule, the “ABSOLUTE SEGMENTED NEUTROPHIL” value [2] was 1206.67 CELLS/uL, the BASOPHIL [2] was 0% and the EOSINOPHIL [2] was 0%. The “ERYTHROCYTE COUNT” value [2] was 5.54 x10E6/uL, the HEMATOCRIT [2] was 36.53% and the HEMOGLOBIN [2] was 13.53 G/DL. For the same molecule, the “LEUKOCYTE COUNT” value [2] was 14.27 x10E3/uL, the LYMPHOCYTE [2] was 91.33% and the “MEAN CORPUSCULAR HEMOGLOBIN” value [2] was 24.57 pg. The “MEAN CORPUSCULAR HEMOGLOBIN CONCENTRATION” value [2] was 37.03 G/DL, the “MEAN CORPUSCULAR VOLUME” value [2] was 66.2 fL and the MONOCYTE [2] was 0.33%. The NEUTROPHIL [2] was 8.33%, the “NUCLEATED RED BLOOD CELLS” value [2] was 0 /100WBC and the “PLATELET COUNT” value [2] was 1281.33 x10E3/uL. The “ALANINE AMINOTRANSFERASE” value [2] was 51.67 u/L, the ALBUMIN [2] was 4.43 G/DL and the “ALKALINE PHOSPHATASE” value [2] was 377.33 u/L. For the same molecule, the “ASPARTATE AMINOTRANSFERASE” value [2] was 70.67 u/L, the “BLOOD UREA NITROGEN” value [2] was 14.67 mg/dL and the “CARBON DIOXIDE” value [2] was 19.33 mmol/L. For the same molecule, the CHLORIDE [2] was 101.33 MEQ/L, the CHOLESTEROL [2] was 73.67 mg/dL and the “CREATINE PHOSPHOKINASE” value [2] was 198.33 u/L. The CREATININE [2] was 0.19 mg/dL, the GLUCOSE [2] was 169.33 mg/dL and the “LACTATE DEHYDROGENASE” value [2] was 89.67 u/L. For the same molecule, the LIPASE [2] was 10 u/L, the PHOSPHORUS [2] was 11.87 mg/dL and the POTASSIUM [2] was 6 MEQ/L. The SODIUM [2] was 146.3 MEQ/L, the “TOTAL BILIRUBIN” value [2] was 0.2 mg/dL and the “TOTAL PROTEIN” value [2] was 6.03 G/DL. The “URIC ACID” value [2] was 1.37 mg/dL, the “ABSOLUTE BASOPHIL” value [3] was 0 CELLS/uL and the “ABSOLUTE EOSINOPHIL” value [3] was 56 CELLS/uL. For the same molecule, the “ABSOLUTE LYMPHOCYTE” value [3] was 13632 CELLS/uL, the “ABSOLUTE MONOCYTE” value [3] was 1059.33 CELLS/uL and the “ABSOLUTE SEGMENTED NEUTROPHIL” value [3] was 1786 CELLS/uL. For the same molecule, the BASOPHIL [3] was 0%, the EOSINOPHIL [3] was 0.33% and the “ERYTHROCYTE COUNT” value [3] was 5.32 x10E6/uL. For the same molecule, the HEMATOCRIT [3] was 32.57%, the HEMOGLOBIN [3] was 12.23 G/DL and the “LEUKOCYTE COUNT” value [3] was 16.53 x10E3/uL. The LYMPHOCYTE [3] was 82.33%, the “MEAN CORPUSCULAR HEMOGLOBIN” value [3] was 23 pg and the “MEAN CORPUSCULAR HEMOGLOBIN CONCENTRATION” value [3] was 37.57 G/DL. For the same molecule, the “MEAN CORPUSCULAR VOLUME” value [3] was 61.17 fL, the MONOCYTE [3] was 6.33% and the NEUTROPHIL [3] was 11%. The “NUCLEATED RED BLOOD CELLS” value [3] was 0 /100WBC, the “PLATELET COUNT” value [3] was 992.67 x10E3/uL and the “ALANINE AMINOTRANSFERASE” value [3] was 69 u/L. The ALBUMIN [3] was 3.57 G/DL, the “ALKALINE PHOSPHATASE” value [3] was 386.67 u/L and the “ASPARTATE AMINOTRANSFERASE” value [3] was 113.33 u/L. For the same molecule, the “BLOOD UREA NITROGEN” value [3] was 16 mg/dL, the “CARBON DIOXIDE” value [3] was 27 mmol/L and the CHLORIDE [3] was 104.33 MEQ/L. For the same molecule, the CHOLESTEROL [3] was 62 mg/dL, the “CREATINE PHOSPHOKINASE” value [3] was 792 u/L and the CREATININE [3] was 0.2 mg/dL. The GLUCOSE [3] was 194 mg/dL, the “LACTATE DEHYDROGENASE” value [3] was 193.33 u/L and the LIPASE [3] was 11.33 u/L. For the same molecule, the PHOSPHORUS [3] was 11.63 mg/dL, the POTASSIUM [3] was 6.09 MEQ/L and the SODIUM [3] was 144.97 MEQ/L. For the same molecule, the “TOTAL BILIRUBIN” value [3] was 0.13 mg/dL, the “TOTAL PROTEIN” value [3] was 6.03 G/DL and the “URIC ACID” value [3] was 1.73 mg/dL.
